Measurements from paper PMC11189555, “Aryl amino acetamides prevent Plasmodium falciparum ring development via targeting the lipid-transfer protein PfSTART1” (Nature Communications, 2024).
pEC50: −log10 of the molar value. Values joined by “and” are separate entries in the source; they are usually repeats but may differ in a detail not shown here. Identical values can stand only once. Like-named read-outs stand apart in the source and are kept apart here.

Test system: SLI-N309K parasites
Assay: Growth inhibition assay (72 h, LDH activity)
Format: cell-based, Plasmodium falciparum
Settings: for Growth inhibition, (1 - av / DMSO) x 100: Fig 2B source data, per biological replicate; for sample/DMSO: START(N309K), biological replicates 1-4; for pEC50: Plasmodium falciparum
Experimental: Parasite growth assays with inhibitory compounds were performed as per[11] and are fully described in the Supplementary Information.
Molecular biology and transfection of P. falciparum: Selection Linked Integration […]
To introduce the PfSTART1 mutations, the second half of the coding sequence of pfstart1 (PF3D7_0104200), was recodonised without introns to the bias of Saccharomyces cerevisiae containing either WT, N309K or N330K mutations, and synthesised as gBlock fragments (Integrated DNA Technologies). The first 819 bp of the 5′ native sequence of pfstart1 was amplified from gDNA, to form the 5’ homology block (5’ HB). The 3′ recodonised gBlock fragment comprising of the last 552 bp of either the WT, N309K or N330K pfstart1 to form the ‘recodon’ block (primers listed in Table S2). The 5’ HB and recodon products were sewn together by overlapping PCR to reconstitute the full coding sequence of pfstart1. These blocks (WT/N309K/N330K) were digested with BglII/PstI, and inserted into the parasite vector p-HA-2A-Neo-glmS
1. This plasmid contains an in -frame haemagglutinin (HA) epitope for protein identification and a P2A peptide (2A) to skip continuous peptide bond synthesis of a downstream neomycin resistance gene ( NeoR).
Parasites containing the transfected DNA were selected using 2.5 nM WR99210 (Jacobus). To select for parasites in which single crossover integration had occurred into the pfstart1 locus, parasites were treated with 400 μg/mL G418 (geniticin, Sigma Aldrich) for 14 days: only parasites that have integrated the construct into their genome expressed the neomycin resistance gene together with the PfSTART1 protein.
Parasite lines were cloned using limiting dilution. These clones were then tested on Western Blot (for correct HA-tagging and protein size), and correct integration and sequence were tested by PCR analysis: PCR on the gDNA was conducted using the primers START_5’UTR.F and START_Seq.R (Table S2). […]
Growth inhibition assays. Synchronised ring-stage parasites (0.3-0.6% parasitemia, 2% haematocrit) were grown for 72 h in a serial-dilution of the compound under […]
and compound 4. Note that M-833 was first purchased from MolPort (MolPort -002-267-916) then made in-house at WEHI: the differences observed in EC50s across experiments are attributed to the different batches of M -833. For some experiments, 0, 0.25 or 2.5 mM of glucosamine (GlcN) was also added. Experiments were set up in technical duplicates or triplicates. Following a freeze -thaw cycle, lactate dehydrogenase (LDH) activity was assessed as an indicator of parasite growt h 5. 30 μL of parasite culture was incubated for 30 min in the dark with 75 μL Malstat mixture (0.1 M Tris pH 9.0, 20 g/L lactic acid, pH 7.5, 0.2% Triton-X100, 0.5 g/L acetylpyridine adenine dinucleotide (APAD, Sigma), 200 μg/mL nitroblue tetrazolium (NBT; Sigma), 1 μg/mL phenozine ethosulfate (PES; Sigma)). Absorbance was then measured at 650 nm, transformed using the formula below, plotted against the logarithm of the concentrations, and a non-linear regression (log(inhibitor) vs. response, variable slope) was calculated using GraphPad Prism to assess the half-inhibitory […]
Growth inhibition % = (1 − average(sample)− average(uRBC)) ∗ 100 […]
The DMSO samples were also used to assess growth of parasite in the presence of 0.25 and 2.5 mM GlcN (normalised by DMSO in 0 mM GlcN).
Egress, invasion & recovery assay. To measure egress, invasion and follow up recovery in the presence of different compounds, we adapted the method developed in6, using Hyp1-Nluc parasites7. These parasites episomally express the exported PEXEL protein Hyp1 (PF3D7_0113300) tagged with a NanoLuc luciferase (NLuc) and were selected with 2.5 nM WR99210 (Jacobus). Highly synchronised schizonts were obtained using ML10 (LifeArc) and sorbitol synchronisation, and Percoll-purified (the culture was gently layered over 67% Percoll (Cytiva) in RPMI, and centrifuged for 15 min at 1500 g and the schizont layer was collected and washed). […]

Cc1cc(Cl)c(S(=O)(=O)N2CCCC2)cc1OCC(=O)NC1CCCCC1 [M-833]
Growth inhibition, (1 - av / DMSO) x 100 (SLI-N309K, M-833 conc 0.00304832 (unit not given)): -28.2579% and -1.2093% and -11.368%
Growth inhibition, (1 - av / DMSO) x 100 (SLI-N309K, M-833 conc 0.00914495 (unit not given)): -16.5589% and 4.977% and -8.756%
Growth inhibition, (1 - av / DMSO) x 100 (SLI-N309K, M-833 conc 0.0274348 (unit not given)): -9.0535% and 17.7442% and 3.575%
Growth inhibition, (1 - av / DMSO) x 100 (SLI-N309K, M-833 conc 0.0823045 (unit not given)): -11.797% and 21.4186% and -2.462%
Growth inhibition, (1 - av / DMSO) x 100 (SLI-N309K, M-833 conc 0.246914 (unit not given)): -0.0196% and 23.5116% and 10.1477%
Growth inhibition, (1 - av / DMSO) x 100 (SLI-N309K, M-833 conc 0.740741 (unit not given)): 27.0233% and 58.6744% and 26.0116%
Growth inhibition, (1 - av / DMSO) x 100 (SLI-N309K, M-833 conc 2.22222 (unit not given)): 70.1744% and 76.5116% and 55.7482%
Growth inhibition, (1 - av / DMSO) x 100 (SLI-N309K, M-833 conc 6.66667 (unit not given)): 87.2624% and 94.814% and 86.8337%
Growth inhibition, (1 - av / DMSO) x 100 (SLI-N309K, M-833 conc 20 (unit not given)): 88.5166% and 95.5116% and 93.0422%
sample/DMSO (M-833 0.00152416 uM, 0 mM GlcN): 2.39
sample/DMSO (M-833 0.00152416 uM, 0.25 mM GlcN): 4.826 and 2.498
sample/DMSO (M-833 0.00152416 uM, 2.5 mM GlcN): 6.332
sample/DMSO (M-833 0.00457247 uM, 0 mM GlcN): 13.8723 and 0.5123 and 3.546 and -3.543
sample/DMSO (M-833 0.00457247 uM, 0.25 mM GlcN): 7.1 and 10.4012 and -2.062 and -3.605
sample/DMSO (M-833 0.00457247 uM, 2.5 mM GlcN): 13.3216 and 19.7117 and 1.5728 and -5.599
sample/DMSO (M-833 0.0137174 uM, 0 mM GlcN): 7.619 and -0.2396 and 1.751 and 10.2857
sample/DMSO (M-833 0.0137174 uM, 0.25 mM GlcN): 8.4852 and 5.851 and 4.488 and 5.637
sample/DMSO (M-833 0.0137174 uM, 2.5 mM GlcN): 21.8449 and 8.908 and 5.227 and 1.886
sample/DMSO (M-833 0.0411523 uM, 0 mM GlcN): 1.68 and 3.644 and 4.3 and 2.606
sample/DMSO (M-833 0.0411523 uM, 0.25 mM GlcN): 17.5682 and 13.2615 and 4.177 and 1.848
sample/DMSO (M-833 0.0411523 uM, 2.5 mM GlcN): 19.1718 and 12.6822 and 8.512 and 8.472
sample/DMSO (M-833 0.123457 uM, 0 mM GlcN): 3.306 and 10.0306 and 17.9209 and 10.4229
sample/DMSO (M-833 0.123457 uM, 0.25 mM GlcN): 21.665 and 12.0728 and 20.7856 and 13.6953
sample/DMSO (M-833 0.123457 uM, 2.5 mM GlcN): 31.9676 and 15.6301 and 24.5056 and 24.9447
sample/DMSO (M-833 0.37037 uM, 0 mM GlcN): 13.628 and 22.7795 and 30.4444 and 24.0457
sample/DMSO (M-833 0.37037 uM, 0.25 mM GlcN): 34.9176 and 21.471 and 31.1561 and 33.3027
sample/DMSO (M-833 0.37037 uM, 2.5 mM GlcN): 40.447 and 24.7651 and 37.6894 and 48.2393
sample/DMSO (M-833 1.11111 uM, 0 mM GlcN): 28.3402 and 44.5509 and 44.7966 and 56.0914
sample/DMSO (M-833 1.11111 uM, 0.25 mM GlcN): 53.0252 and 39.9238 and 58.0645 and 67.3975
sample/DMSO (M-833 1.11111 uM, 2.5 mM GlcN): 64.9649 and 41.0107 and 63.8256 and 74.1417
sample/DMSO (M-833 3.33333 uM, 0 mM GlcN): 62.0018 and 73.866 and 73.9333 and 81.5771
sample/DMSO (M-833 3.33333 uM, 0.25 mM GlcN): 83.0296 and 69.5951 and 81.4805 and 87.3149
sample/DMSO (M-833 3.33333 uM, 2.5 mM GlcN): 83.83 and 68.173 and 80.0856 and 88.1096
sample/DMSO (M-833 10 uM, 0 mM GlcN): 89.1663 and 89.2589 and 93.2173 and 92.8571
sample/DMSO (M-833 10 uM, 0.25 mM GlcN): 91.9813 and 85.912 and 92.402 and 91.8609
sample/DMSO (M-833 10 uM, 2.5 mM GlcN): 89.5706 and 77.5672 and 88.9441 and 91.41
pEC50 (72 h, Fig 2B, SLI-N309K, 72 h, n = 3, unit only in x-axis title, read-out: EC50 (95% confidence interval)): 6.00
pEC50 (Fig 3C, SLI-N309K, 0 mM GlcN, n = 4, unit on plot axis, read-out: EC50 M-833 (95% confidence interval)): 5.79
pEC50 (Fig 3C, SLI-N309K, 0.25 mM GlcN, n = 4, unit on plot axis, read-out: EC50 M-833 (95% confidence interval)): 6.01
pEC50 (Fig 3C, SLI-N309K, 2.5 mM GlcN, n = 4, unit on plot axis, read-out: EC50 M-833 (95% confidence interval)): 6.19
fold more resistant than the 3D7 parental parasites (SLI-N309K, Fig 2B): 10 fold
fold reduction of EC50 on addition of 2.5 mM GlcN (SLI-N309K, not statistically significant): 2.5 fold
